Test results taken from patent US20110306665A1, “COSMETIC PREPARATION, METHOD FOR PRODUCING SAME, COMPOSITION FOR COSMETIC PREPARATIONS, COSMETIC PREPARATION CONTAINING THE COMPOSITION FOR COSMETIC PREPARATIONS AND METHOD FOR PRODUCING SAME, AND CLEANSER FOR INDUSTRIAL USE” (The Nisshin OilliO Group, Ltd., priority 2009, published 2011).

Legend:
[1] = Oxidative stability by conductometric determination method (CDM, Rancimat); format: physicochemical; conditions: 3 g, 120° C., air flow 8 L/h
Procedure: Furthermore, the oxidative stability was compared between the cosmetic preparation compositions of Example 12 and Comparative Example 4. Specifically speaking, these cosmetic preparation compositions were evaluated for the oxidative stability by a conductometric determination method (CDM method). […] A greater increase in the conductivity per unit time means a lower oxidative stability of the cosmetic preparation composition. Conversely, a smaller increase in the conductivity per unit time means a higher oxidative stability of the cosmetic preparation composition. The conductivity was measured by using a rancimat instrument (Type: Rancimat 743, a product of Metrohm-Sibata Ltd.) in a condition where 3 g of the sample was examined under heating at 120° C. with an air flow rate of 8 L/h.

[2] = Viscosity by stress-controlled rheometer at 20° C.; format: physicochemical
Procedure: (§1) Next, the viscosity and the friction coefficient of the cosmetic preparation compositions of Example 12 and Comparative Examples 4 to 7 and 4A to 4C were measured.
The viscosity was measured by using a stress-controlled rheometer (Product No. RheoStress RS1, with a C60/2 Ti sensor, a product of Haake Company) at 20° C.

[3] = Moisturizing properties of cosmetic preparation compositions (massage oil, panel); format: in vivo, human; parameters: key: Good: Very soft and moistened touch was felt.; Moderate: Soft and moistened touch was felt.; Poor: No moistened touch was felt; conditions: neat cosmetic preparation composition (massage oil); 0.05 g, rubbed twenty times, wiped; seven panelists
Procedure: In Example 12, the PDO diisostearate obtained from Synthesis Example 1 was used as a cosmetic preparation composition (moisturizing ingredient) for a moisturizing cosmetic preparation (massage oil), and the moisturizing properties and the feeling of use thereof were evaluated.
The insides of the arms of seven panelists were washed with soap and water, and in addition, the washed surfaces were wiped with ethanol and naturally dried. Thereafter, each of the thus washed surfaces was evenly divided into eight equal areas, to which 0.05 g of the respective cosmetic preparation compositions of Example 12, and Comparative Examples 4 to 7 and 4A to 4C, was applied and massage was done by gently rubbing with a finger twenty times. Thereafter, the area was wiped with a dry cloth. On completion of this wiping, the moisturizing properties and the feeling of use of the respective cosmetic preparation compositions were evaluated in accordance with the same criteria as those of the moisturizing gels of Examples 6 to 8 mentioned above.

[4] = Friction coefficient on artificial leather (friction tester); format: physicochemical; conditions: 5 μL on artificial leather, pressure of 100 g
Procedure: as §1
The friction coefficient was measured by such a way that: 5 μL of each cosmetic preparation composition was applied to the surface of an artificial leather (Product Name: Supplale, a product of Idemitsu Technofine Co., Ltd.), and the applied surface was measured for the friction coefficient and the change in the value of the friction coefficient, by using a friction tester (Type: TL201Ts, a product of Trinity-Lab Co., Ltd.) with a pressure of 100 g.

Question: Which results are given for PDO diisostearate [Example 12]?
Answer: Conductivity (CDM method) after 5 hours ([1]; after 5 hours): 17 μS/cm; Conductivity (CDM method) after 10 hours ([1]; after 10 hours): 45 μS/cm; Conductivity (CDM method) after 15 hours ([1]; after 15 hours): 83 μS/cm; Conductivity (CDM method) after 20 hours ([1]; after 20 hours): 127 μS/cm; Viscosity (mPa · s) (20° C.) [2]: 80.0 mPa · s; Moisturizing properties [3]: Good; Changed value of friction coefficient [4]: 0.0045; Friction coefficient [4]: 0.140
